From patent US12565489B2, “Heterocyclyl pyrimidines and triazines as novel fungicides” (Bayer Aktiengesellschaft, priority 2020, dated 2026)

How the values were obtained:
[1] = system: Colletotrichum lindemuthianum; test: Colletotrichum lindemuthianum in vitro cell test; format: cell-based; settings: 144 h, 20 ppm of active ingredient, 6 days incubation, liquid culture, spectrometric measurement of mycelium growth, read-out: efficacy (inhibition of fungal growth)
Description: • Solvent: DMSO • Culture medium: 14.6 g anhydrous D-glucose (VWR), 7.1 g Mycological Peptone (Oxoid), 1.4 g granulated Yeast Extract (Merck), QSP 1 liter • Inoculum: spore suspension Fungicides were solubilized in DMSO and the solution used to prepare the required range of concentrations. […] A spore suspension of C. lindemuthianum was prepared and diluted to the desired spore density. Fungicides were evaluated for their ability to inhibit spores germination and mycelium growth in liquid culture assay. The compounds were added in the desired concentration to the culture medium with spores. After 6 days incubation, fungi-toxicity of compounds was determined by spectrometric measurement of mycelium growth. Inhibition of fungal growth was determined by comparing the absorbance values in wells containing the fungicides with the absorbance in control wells without fungicides.

[2] = system: Botrytis cinerea; test: Botrytis cinerea in vitro cell test; format: cell-based; settings: 144 h, 20 ppm of active ingredient, 6 days incubation, liquid culture, spectrometric measurement of mycelium growth, read-out: efficacy (inhibition of fungal growth)
Description: • Solvent: DMSO • Culture medium: 1 g KH2PO4 (VWR), 1 g K2HPO4 (VWR), 0.5 g Urea (VWR), 3 g KNO3 (Prolabo), 10 g saccharose (VWR), 0.5 g MgSO4, 7H2O (Sigma), 0.07 g CaCl2, 2H2O (Prolabo), 0.2 mg MnSO4, H2O (Sigma), 0.6 mg CuSO4, 5H2O (Sigma), 7.9 mg ZnSO4, 7H2O (Sigma), 0.1 mg H3BO3 (Merck), 0.14 mg NaMoO4, 2H2O (Sigma), 2 mg thiamine (Sigma), 0.1 mg biotine (VWR), 4 mg FeSO4, 7H2O (Sigma), QSP 1 liter • Inoculum: spore suspension Fungicides were solubilized in DMSO and the solution used to prepare the required range of concentrations. […] A spore suspension of B. cinerea was prepared and diluted to the desired spore density. Fungicides were evaluated for their ability to inhibit spore germination and mycelium growth in liquid culture assay. The compounds were added in the desired concentration to the culture medium with spores. After 6 days incubation, fungi-toxicity of compounds was determined by spectrometric measurement of mycelium growth. Inhibition of fungal growth was determined by comparing the absorbance values in wells containing the fungicides with the absorbance in control wells without fungicides.

[3] = system: Alternaria brassicae; test: In vivo preventive test on Alternaria brassicae (leaf spot on radish or cabbage); settings: 144 h, 500 ppm of active ingredient, preventive spray on young radish or cabbage plants, evaluated 6 days after inoculation, read-out: efficacy
Description: The active ingredients were made soluble and homogenized in a mixture of Dimethyl sulfoxide/Acetone//Tween®80 and then diluted in water to the desired concentration. The young plants of radish or cabbage were treated by spraying the active ingredient prepared as described above. Control plants were treated only with an aqueous solution of Acetone/Dimethyl sulfoxide/Tween® 80. After 24 hours, the plants were contaminated by spraying the leaves with an aqueous suspension of Alternaria brassicae spores.

Cc1ccc(CC2CON=C(c3nc(C4CC4)ncc3Oc3cccc(C(F)(F)F)c3)N2)c(C)c1 (racemic) [Compound I-001, (5RS)-3-{2-cyclopropyl-5-[3-(trifluoro-methyl)phenoxy]pyrimidin-4-yl}-5-(2,4-dimethylbenzyl)-5,6-dihydro-4H-1,2,4-oxadiazine] showed an inhibition at 20 ppm [1] of 90 to 100%, an inhibition at 20 ppm [2] of 90 to 100% and a pest or weed control at 500 ppm [3] of 90 to 100%.
Cc1ccc(CC2CON=C(c3nc(C)ncc3Oc3cccc(C(F)(F)F)c3)N2)c(C)c1 (racemic) [Compound I-002, (5RS)-5-(2,4-dimethylbenzyl)-3-{2-methyl-5-[3-(trifluoro-methyl)phenoxy]pyrimidin-4-yl}-5,6-dihydro-4H-1,2,4-oxadiazine] gave an inhibition at 20 ppm [1] of 90 to 100%, an inhibition at 20 ppm [2] of 90 to 100% and a pest or weed control at 500 ppm [3] of 90 to 100%.
In the case of Cc1cccc(Oc2cnc(C)nc2C2=NOC[C@@H](Cc3ccc(C)cc3C)N2)c1 (racemic) [Compound I-004], the inhibition at 20 ppm [1] is reported as 90 to 100%, the inhibition at 20 ppm [2] is reported as 90 to 100% and the pest or weed control at 500 ppm [3] is reported as 90 to 100%.
Work on Cc1ccc(C[C@@H]2CON=C(c3nc(C)ncc3Oc3cccc(Cl)c3F)N2)c(Cl)c1 (racemic) [Compound I-005] yielded an inhibition at 20 ppm [1] of 90 to 100%, an inhibition at 20 ppm [2] of 90 to 100% and a pest or weed control at 500 ppm [3] of 90 to 100%.
Work on C=Cc1ccc(C[C@@H]2CON=C(c3nc(C)ncc3Oc3cccc(C(F)(F)F)c3)N2)c(C)c1 (racemic) [Compound I-006] yielded an inhibition at 20 ppm [1] of 90 to 100%, an inhibition at 20 ppm [2] of 90 to 100% and a pest or weed control at 500 ppm [3] of 90 to 100%.
With Cc1ccc(C[C@@H]2CON=C(c3nc(C)ncc3Oc3cccc(C4CC4)c3F)N2)c(Cl)c1 (racemic) [Compound I-008] the inhibition at 20 ppm [1] was 90 to 100%, the inhibition at 20 ppm [2] was 90 to 100% and the pest or weed control at 500 ppm [3] was 90 to 100%.
For Cc1ccc(C[C@@H]2CON=C(c3nc(C)ncc3Oc3cccc(Br)c3)N2)c(C)c1 (racemic) [Compound I-009], the inhibition at 20 ppm [1] was 90 to 100%, the inhibition at 20 ppm [2] was 90 to 100% and the pest or weed control at 500 ppm [3] was 90 to 100%.
For Cc1ccc(C[C@@H]2CON=C(c3nc(C)ncc3Oc3cccc(C(F)(F)F)c3)N2)c(Cl)c1 (racemic) [Compound I-013], the inhibition at 20 ppm [1] was 90 to 100%, the inhibition at 20 ppm [2] was 90 to 100% and the pest or weed control at 500 ppm [3] was 90 to 100%.
Cc1ccc(C[C@@H]2CON=C(c3nc(C)ncc3Oc3cccc(C4CC4)c3F)N2)c(C)c1 (racemic) [Compound I-016] gave an inhibition at 20 ppm [1] of 90 to 100%, an inhibition at 20 ppm [2] of 90 to 100% and a pest or weed control at 500 ppm [3] of 90 to 100%.
CSc1ncc(Oc2cccc(C(F)(F)F)c2)c(C2=NOC[C@@H](Cc3ccc(C)cc3C)N2)n1 (racemic) [Compound I-017] gave an inhibition at 20 ppm [1] of 90 to 100%, an inhibition at 20 ppm [2] of 90 to 100% and a pest or weed control at 500 ppm [3] of 90 to 100%.
With Cc1ccc(C[C@@H]2CON=C(c3nc(C)ncc3Oc3cccc(Cl)c3)N2)c(Cl)c1 (racemic) [Compound I-018] the inhibition at 20 ppm [1] was 90 to 100%, the inhibition at 20 ppm [2] was 90 to 100% and the pest or weed control at 500 ppm [3] was 90 to 100%.
C=Cc1cccc(Oc2cnc(C)nc2C2=NOC[C@@H](Cc3ccc(C)cc3C)N2)c1 (racemic) [Compound I-019] gave an inhibition at 20 ppm [1] of 90 to 100%, an inhibition at 20 ppm [2] of 90 to 100% and a pest or weed control at 500 ppm [3] of 90 to 100%.
Compound Cc1ncc(Oc2cccc(C(F)(F)F)c2)c(C2=NOCC(Cc3ccc(Br)cc3C)N2)n1 (racemic) [Compound I-021, (5RS)-5-[(4-bromo-2-methyl-phenyl)methyl]-3-[2-methyl-5-[3-(trifluoro-methyl)phenoxy]pyrimidin-4-yl]-5,6-dihydro-4H-1,2,4-oxadiazine] has an inhibition at 20 ppm [1] of 90 to 100%, an inhibition at 20 ppm [2] of 90 to 100% and a pest or weed control at 500 ppm [3] of 90 to 100%.
Cc1ccc(C[C@@H]2CON=C(c3nc(C)ncc3Oc3cccc(Cl)c3)N2)c(C)c1 (racemic) [Compound I-023] showed an inhibition at 20 ppm [1] of 90 to 100%, an inhibition at 20 ppm [2] of 90 to 100% and a pest or weed control at 500 ppm [3] of 90 to 100%.
For Cc1ccc(C[C@@H]2CON=C(c3nc(C)ncc3Oc3cccc(C4CC4)c3)N2)c(C)c1 (racemic) [Compound I-024], the inhibition at 20 ppm [1] was 90 to 100%, the inhibition at 20 ppm [2] was 90 to 100% and the pest or weed control at 500 ppm [3] was 90 to 100%.
For C#Cc1cccc(Oc2cnc(C)nc2C2=NOC[C@@H](Cc3ccc(C)cc3C)N2)c1 (racemic) [Compound I-025], the inhibition at 20 ppm [1] was 90 to 100%, the inhibition at 20 ppm [2] was 90 to 100% and the pest or weed control at 500 ppm [3] was 90 to 100%.
In the case of C#Cc1ccc(CC2CON=C(c3nc(C)ncc3Oc3cccc(C(F)(F)F)c3)N2)c(C)c1 (racemic) [Compound I-026, (5RS)-5-[(4-ethynyl-2-methyl-phenyl)methyl]-3-[2-methyl-5-[3-(trifluoromethyl)phenoxy]pyrimidin-4-yl]-5,6-dihydro-4H-1,2,4-oxadiazine], the inhibition at 20 ppm [1] is reported as 90 to 100%, the inhibition at 20 ppm [2] is reported as 90 to 100% and the pest or weed control at 500 ppm [3] is reported as 90 to 100%.
Compound Cc1ncc(Oc2cccc(C(F)(F)F)c2)c(C2=NOCC(Cc3ccc(C4CC4)cc3C)N2)n1 (racemic) [Compound I-029, (5RS)-5-[(4-cyclopropyl-2-methyl-phenyl)methyl]-3-[2-methyl-5-[3-(trifluoromethyl)phenoxy]pyrimidin-4-yl]-5,6-dihydro-4H-1,2,4-oxadiazine] has an inhibition at 20 ppm [1] of 90 to 100%, an inhibition at 20 ppm [2] of 90 to 100% and a pest or weed control at 500 ppm [3] of 90 to 100%.
Cc1ncc(Oc2cccc(C(F)(F)F)c2)c(C2=NOC[C@@H](Cc3ccc(SC(F)(F)F)cc3)N2)n1 (racemic) [Compound I-030] gave an inhibition at 20 ppm [1] of 90 to 100%, an inhibition at 20 ppm [2] of 90 to 100% and a pest or weed control at 500 ppm [3] of 80 to 89%.
With COc1cccc(Oc2cnc(C)nc2C2=NOC[C@@H](Cc3ccc(C)cc3C)N2)c1 (racemic) [Compound I-032] the inhibition at 20 ppm [1] was 90 to 100%, the inhibition at 20 ppm [2] was 90 to 100% and the pest or weed control at 500 ppm [3] was 90 to 100%.
Cc1ncc(Oc2cccc(C(F)(F)F)c2)c(C2=NOC[C@@H](Cc3ccc(C(F)F)cc3Cl)N2)n1 (racemic) [Compound I-033] gave an inhibition at 20 ppm [1] of 90 to 100%, an inhibition at 20 ppm [2] of 90 to 100% and a pest or weed control at 500 ppm [3] of 90 to 100%.
